{"source": "paper PMC8959600", "about": "(eLife, 2022)", "key": {"Salmonella": {"test_system": "Salmonella", "assay": "MIC by micro dilution, clinical Salmonella isolates from Vietnam", "assay_type": "cell-based", "details": "117 Salmonella from diarrhoeal cases in Vietnam; read-out: median MIC", "from_the_text": "Selected compounds, including Tebipenem, were profiled against a panel of […] clinical isolates of enteric pathogens comprised of Shigella (Vietnam and Kenya; n = 135), non-typhoidal Salmonella (Vietnam; n = 117), Campylobacter (Vietnam; n = 75), and various pathogenic E. coli species (Vietnam; n = 7) ([Butcher et al., 2014]). The antimicrobial susceptibility profile of these organisms is described in Supplementary file 1.\nCompound screening and dose response assays have been described previously ([Van Voorhis et al., 2016]; [Wiegand et al., 2008]). Briefly, the selected bacteria were cultured on the Luria-Bertani agar overnight at 37 °C (Campylobacter isolates were grown in 2.5% Laked Horse Blood cation-adjusted Mueller Hinton medium (CAMHB, Sigma Aldrich) and incubated in microaerophilic conditions (10% CO2, 5% O2 and 85% N2) at 42 °C); colonies were added to sterile PBS to form 0.5 McFarland solutions. […] The activity of the chemical was recorded as being active (yes) or non-active (no) for each of the tested chemicals. A non-active result was recorded when there was no evidence of bacterial inhibition, and the culture area was indistinguishable from the negative control.\nMICs were evaluated using the micro dilution assay in Müller Hinton broth using 1 mM chemical stock solutions, and a final concentration of 5 × 10^5 CFU/mL bacteria. […]"}, "[1]": {"test_system": "invasive and non-invasive Salmonella isolates", "assay": "Checkerboard synergy assay (FIC), clinical Salmonella isolates", "assay_type": "cell-based", "details": "in combination with azithromycin", "method": "Before initiating drug combination assays, the MIC values for both compounds were determined against Shigella (Sf2457T), Salmonella (St14028), and E. coli (EcDH5a) isolates. […] 20 μM moxifloxacin was used as negative control (100% bacterial growth inhibition) in one column and DMSO as positive control (100% bacterial growth). A total of 25 µl of 1 × 10^6 CFU/mL bacterial culture was added to each well of a 384-well plate (μClear; Greiner Bio‐One). Plates were incubated overnight at 37 °C. Next, 10 µl of resazurin were added and plates were incubated at room temperature for 3 hr. Bacterial growth inhibition was measured by fluorescence in a Envision plate reader (PerkinElmer). All assays were performed in duplicate. Combination studies with clinical isolates were performed in 96-well plates (Greiner) adding 200 μl of 1 × 10^6 CFU/mL bacterial culture and following the same checkboard titration method as described above. The range of final working concentrations of each antimicrobial was adjusted based on the MIC of each selected organism.\nMICs were determined for drug A and drug B alone and in combination. […]"}, "[2]": {"assay": "Intestinal distribution by quantitative LC-MS in mice", "assay_type": "in vivo", "details": "for peak drug concentration: mice, oral 50 mg/kg Tebipenem pivoxil", "method": "One animal was euthanised at 0.25, 0.5, 1, and 4 hr respectively and 2.5–3 cm sections of the intestine (duodenum, jejunum, ileum, caecum, and colon) were collected and frozen at –80 °C. For quantitative LCMS analysis of intestine homogenate, samples were thawed at ambient temperature, mixed with water (1:1) and homogenised by turrax (10 sec). Subsequently, 20 µL of homogenate were mixed with 200 µl of ACN: MeOH (80:20) and filtered using 0.2 µm filter plate (Whatman). LCMS analysis was performed as described in previous section. For MALDI imaging, 50 mm of the central part of each intestinal section were cut and mounted in a sample disc on dry ice with a solution of 1% methylcellulose (Sigma Aldrich, UK). Next, tissue sections of 12 µm (sagital sections) were obtained using a cryostat (Leica CM3600; Leica Microsystems Inc, Wetzlar, Germany) at –20 °C and collected in conductive-coated slides for MALDI Imaging (Bruker Daltonic). After the ‘MALDI’ section was obtained a consecutive section for histology was taken. Prior to matrix coating, samples for MALDI were optical scanned in a PathScanner. The matrix deposition was conducted in a sprayer ImagePrep System (Bruker Daltonic) which uses vibrational vaporisation technology. As matrix solution α-CHCA (α-Cyano-4-hydroxycinnamic acid (Sigma Aldrich) dissolved in 70:30 methanol/water (v/v) containing 0.2% TFA at 7 mg/mL was used. MALDI MSI data were obtained using a Bruker UltrafleXtream MALDI TOF/TOF (Bruker Daltonic, Germany))."}, "S. flexneri 2457T": {"test_system": "S. flexneri 2457T", "assay": "microbe, parasite or virus in culture", "assay_type": "cell-based, Shigella flexneri", "method": "Bacterial inoculum without drug was used as positive control. The bacteria inoculum (1 × 10^5 CFU/mL) for the assay was prepared by diluting a log phase incubated at 37 °C for 3–4 hr. Mueller Hinton agar plates were prepared containing 4xMIC and 10xMIC and inoculated with different concentrations of bacteria (1 × 10^9, 1 × 10^8, and 1 × 10^7 CFU/mL). Plates were prepared in duplicate and incubated overnight at 37 °C. The frequency of spontaneous resistant mutants was calculated by using the formula: FoR = resistant CFUs/inoculum CFUs. The mean of the two plates was reported."}, "[3]": {"details": "female, C57, mouse, duodenum and jejunum, po, 50 mg/kg, read-out: concentration in tissue"}}}
{"smiles": "C[C@@H](O)[C@H]1C(=O)N2C(C(=O)O)=C(SC3CN(C4=NCCS4)C3)[C@H](C)[C@H]12", "note": "[Tebipenem]", "values": [{"measurement": "MIC", "setting": "Salmonella", "value": "< 0.1", "unit": "µM"}, {"measurement": "FIC scores", "setting": "[1]", "value": "~ 0.5"}, {"measurement": "concentration at 15 min", "setting": "[2]; [3]", "value": "> 300000", "unit": "ng/g"}, {"measurement": "concentration at 240 min", "setting": "[2]; [3]", "value": "> 400", "unit": "ng/g"}, {"measurement": "peak drug concentration", "setting": "[2]; caecum, after 60 min", "value": 11, "unit": "µg/g tissue"}, {"measurement": "peak drug concentration", "setting": "[2]; colon, after 60 min", "value": 6, "unit": "µg/g tissue"}, {"measurement": "peak drug concentration", "setting": "[2]; ileum, after 30 min", "value": 15, "unit": "µg/g tissue"}, {"measurement": "frequency of spontaneous resistance", "setting": "S. flexneri 2457T; S. flexneri 2457T, 4 x and 10 x MIC", "value": "< 1.2 × 10^–9"}, {"measurement": "MIC", "setting": "S. flexneri 2457T; Shigella flexneri, 2457T", "value": 0.02, "unit": "µM"}]}
